Laboratory results published in PubChem BioAssay AID328 (DTP/NCI, 2004).
Values joined by “and” are separate entries in the source; they are usually repeats but may differ in a detail not shown here. Equal entries are not always repeated. Toxic doses and inconclusive results are not listed. The calls were made as follows: active = survival T/C of 150% or more; inactive = T/C below 125% in these data. Starred links: 1 amine or outer side, 2 acyl side, 3 side chain; linkers in the order of their positions; H or OH if unused. Positions of bridges follow the written chain, without caps; N, C: chain ends. Non-standard residues stand in square brackets, D forms with d. Residues, ends and D or L forms follow the SMILES beside them. Chains are numbered I, II in the order given. Actinocin(1to9) = Cc1c2oc3c(C)ccc(C(=O)[*:2])c3nc-2c(C(=O)[*:1])c(N)c1=O; NMeV = CN[CH](C(=O)O)C(C)C; Sar = CNCC(=O)O

Test system: BDF1 mice, P388 leukemia ip, median survival T/C
Assay: NCI In Vivo Anticancer Drug Screen. Data for tumor model P388 Leukemia (intraperitoneal) in B6D2F1 (BDF1) mice
Conditions: endpoint: median survival time, higher = longer survival
How it was run: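 Compound-treated tumour-bearing mice were compared with vehicle-treated controls. Survival was recorded, and the value is the treated-group measurement divided by the control-group measurement (T/C).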

[1] = dose: 50.0 mg/kg/injection, schedule: Q01DX009 (ip), vehicle: saline with Tween-80
[2] = dose: 100.0 mg/kg/injection, schedule: Q01DX009 (ip), vehicle: saline with Tween-80
[3] = dose: 200.0 mg/kg/injection, schedule: Q01DX009 (ip), vehicle: saline with Tween-80
[4] = dose: 100.0 mg/kg/injection, schedule: Q01DX001 (ip), vehicle: saline with Tween-80
[5] = dose: 200.0 mg/kg/injection, schedule: Q01DX001 (ip), vehicle: saline with Tween-80
[6] = dose: 400.0 mg/kg/injection, schedule: Q01DX001 (ip), vehicle: saline with Tween-80

Measured: T/C

CCC(C)C1NC(=O)C(NC(=O)c2c3nc4c(C(=O)NC5C(=O)NC(C(C)C)C(=O)N6CCCC6C(=O)N(C)CC(=O)N(C)C(C(C)C)C(=O)OC5C)ccc(C)c4oc-3c(C)c(=O)c2N)C(C)OC(=O)C(C(C)C)N(C)C(=O)CN(C)C(=O)C2CCCN2C1=O (stereo not drawn) (I: TIP[Sar][NMeV] / II: TVP[Sar][NMeV]; ester I:1-I:C, II:1-II:C; linker I:N-II:N via Actinocin(1to9); configuration not given here)
inactive: dose: 0.1 mg/kg/injection, schedule: Q01DX010 (ip), vehicle: saline 100 % of control | dose: 3.1 micrograms/kg/injection, schedule: Q01DX001 (ip), vehicle: saline 118 % of control | dose: 3.1 micrograms/kg/injection, schedule: Q04DX003 (ip), vehicle: saline 118 % of control | dose: 6.3 micrograms/kg/injection, schedule: Q01DX001 (ip), vehicle: saline 109 % of control | dose: 100.0 micrograms/kg/injection, schedule: Q01DX010 (ip), vehicle: saline 110 % of control | dose: 200.0 micrograms/kg/injection, schedule: Q01DX010 (ip), vehicle: saline 90 % of control
active: dose: 0.05 mg/kg/injection, schedule: Q01DX010 (ip), vehicle: saline 300 % of control | dose: 0.2 mg/kg/injection, schedule: Q01DX001 (ip), vehicle: water 175 % of control | dose: 0.4 mg/kg/injection, schedule: Q01DX001 (ip), vehicle: water 155 % of control | dose: 0.8 mg/kg/injection, schedule: Q01DX001 (ip), vehicle: water 175 % of control | dose: 3.1 micrograms/kg/injection, schedule: Q01DX010 (ip), vehicle: saline 180 % of control | dose: 6.0 micrograms/kg/injection, schedule: Q01DX010 (ip), vehicle: saline 180 % of control | dose: 6.2 micrograms/kg/injection, schedule: Q01DX010 (ip), vehicle: saline 190 % of control | dose: 12.5 micrograms/kg/injection, schedule: Q01DX009 (ip), vehicle: water 213 % of control | dose: 12.5 micrograms/kg/injection, schedule: Q01DX010 (ip), vehicle: saline 228 % of control and 220 % of control | dose: 25.0 micrograms/kg/injection, schedule: Q01DX009 (ip), vehicle: water 215 % of control | dose: 25.0 micrograms/kg/injection, schedule: Q01DX010 (ip), vehicle: saline 285 % of control and 220 % of control | dose: 25.0 micrograms/kg/injection, schedule: Q04DX003 (ip), vehicle: saline 154 % of control | dose: 50.0 micrograms/kg/injection, schedule: Q01DX001 (ip), vehicle: saline 150 % of control | dose: 50.0 micrograms/kg/injection, schedule: Q01DX009 (ip), vehicle: water 215 % of control | dose: 50.0 micrograms/kg/injection, schedule: Q01DX010 (ip), vehicle: saline 285 % of control and 300 % of control | dose: 50.0 micrograms/kg/injection, schedule: Q04DX003 (ip), vehicle: saline 190 % of control | dose: 75.0 micrograms/kg/injection, schedule: Q04DX003 (ip), vehicle: water 172 % of control | dose: 100.0 micrograms/kg/injection, schedule: Q01DX001 (ip), vehicle: saline 159 % of control | dose: 100.0 micrograms/kg/injection, schedule: Q01DX009 (ip), vehicle: water 243 % of control | dose: 100.0 micrograms/kg/injection, schedule: Q04DX003 (ip), vehicle: saline 186 % of control | dose: 150.0 micrograms/kg/injection, schedule: Q04DX003 (ip), vehicle: water 181 % of control | dose: 200.0 micrograms/kg/injection, schedule: Q01DX001 (ip), vehicle: saline 186 % of control | dose: 200.0 micrograms/kg/injection, schedule: Q04DX003 (ip), vehicle: saline 231 % of control | dose: 300.0 micrograms/kg/injection, schedule: Q04DX003 (ip), vehicle: water 241 % of control | dose: 400.0 micrograms/kg/injection, schedule: Q01DX001 (ip), vehicle: saline 218 % of control | dose: 400.0 micrograms/kg/injection, schedule: Q04DX003 (ip), vehicle: saline 263 % of control | dose: 600.0 micrograms/kg/injection, schedule: Q04DX003 (ip), vehicle: water 267 % of control

CN(C)c1ccc(/C=C/c2ccc3ccccc3n2)c(F)c1
inactive: dose: 100.0 mg/kg/injection, schedule: Q04DX003 (ip), vehicle: Klucel (hydroxypropylcellulose) (HPC) 90 % of control | dose: 200.0 mg/kg/injection, schedule: Q04DX003 (ip), vehicle: Klucel (hydroxypropylcellulose) (HPC) 95 % of control | dose: 400.0 mg/kg/injection, schedule: Q04DX003 (ip), vehicle: Klucel (hydroxypropylcellulose) (HPC) 90 % of control

OCCC1=CCC1
inactive: [1] 101 % of control | [2] 101 % of control | [3] 111 % of control

CCOC(=O)/C(C#N)=C1\CCc2cc(OC)ccc21
inactive: [4] 92 % of control | [5] 88 % of control | [6] 88 % of control

COCOS(C)(=O)=O
inactive: dose: 100.0 mg/kg/injection, schedule: Q04DX003 (ip), vehicle: saline 95 % of control | dose: 200.0 mg/kg/injection, schedule: Q04DX003 (ip), vehicle: saline 120 % of control

CC(/C=C/c1ccccc1)=N\O
inactive: dose: 100.0 mg/kg/injection, schedule: Q04DX003 (ip), vehicle: saline sonified 90 % of control | dose: 200.0 mg/kg/injection, schedule: Q04DX003 (ip), vehicle: saline sonified 90 % of control | dose: 400.0 mg/kg/injection, schedule: Q04DX003 (ip), vehicle: saline sonified 90 % of control

CC[CH2][Pb]([CH2]CC)([CH2]CC)[O]C(=O)C(F)(F)F
inactive: dose: 4.0 mg/kg/injection, schedule: Q01DX009 (ip), vehicle: Klucel (hydroxypropylcellulose) (HPC) 113 % of control | dose: 4.0 mg/kg/injection, schedule: Q01DX009 (ip), vehicle: saline with Tween-80 122 % of control | dose: 6.0 mg/kg/injection, schedule: Q01DX009 (ip), vehicle: Klucel (hydroxypropylcellulose) (HPC) 111 % of control
active: dose: 6.0 mg/kg/injection, schedule: Q01DX009 (ip), vehicle: saline with Tween-80 150 % of control

CCCC[N+](CCCC)=c1cc(-c2ccc(Cl)cc2)ss1
inactive: dose: 3.12 mg/kg/injection, schedule: Q01DX009 (ip), vehicle: water 100 % of control and 114 % of control | dose: 6.25 mg/kg/injection, schedule: Q01DX009 (ip), vehicle: water 91 % of control and 120 % of control | dose: 12.5 mg/kg/injection, schedule: Q01DX009 (ip), vehicle: water 98 % of control and 104 % of control | dose: 25.0 mg/kg/injection, schedule: Q01DX009 (ip), vehicle: water 100 % of control and 106 % of control | dose: 50.0 mg/kg/injection, schedule: Q04DX003 (ip), vehicle: water 102 % of control | dose: 100.0 mg/kg/injection, schedule: Q04DX003 (ip), vehicle: water 93 % of control

O=C(OC1CC2CCCC21)c1cc([N+](=O)[O-])cc([N+](=O)[O-])c1 (stereo not drawn)
inactive: [4] 94 % of control | [5] 97 % of control | [6] 99 % of control

CCOP(=O)(OCC)ON1C(=O)c2cccc3cccc(c23)C1=O
inactive: dose: 0.78 mg/kg/injection, schedule: Q01DX009 (ip), vehicle: Klucel (hydroxypropylcellulose) (HPC) 97 % of control | dose: 1.56 mg/kg/injection, schedule: Q01DX009 (ip), vehicle: Klucel (hydroxypropylcellulose) (HPC) 99 % of control

Cc1cc(NC(=O)c2ccc(C(=O)Nc3ccc(C4=NCCN4)c(C)c3)cc2)ccc1C1=NCCN1
inactive: [2] 122 % of control
active: [3] 186 % of control

O=S1(=O)C=CCCC=C1
inactive: dose: 50.0 mg/kg/injection, schedule: Q01DX009 (ip), vehicle: Klucel (hydroxypropylcellulose) (HPC) 100 % of control | dose: 100.0 mg/kg/injection, schedule: Q01DX009 (ip), vehicle: Klucel (hydroxypropylcellulose) (HPC) 89 % of control

CCCCC(OC(=O)c1ccccc1)c1cc(OC(=O)c2ccccc2)c2c(c1OC(=O)c1ccccc1)CC(C)=C(C)C2 (stereo not drawn)
inactive: dose: 12.5 mg/kg/injection, schedule: Q04DX003 (ip), vehicle: saline with Tween-80 111 % of control | dose: 25.0 mg/kg/injection, schedule: Q04DX003 (ip), vehicle: saline with Tween-80 107 % of control

COC1C(CNC23CC4CC(CC(C4)C2)C3)OC2OC(C)(C)OC21 (stereo not drawn)
inactive: dose: 25.0 mg/kg/injection, schedule: Q01DX005 (ip), vehicle: saline with Tween-80 101 % of control | dose: 50.0 mg/kg/injection, schedule: Q01DX005 (ip), vehicle: saline with Tween-80 100 % of control and 113 % of control | dose: 100.0 mg/kg/injection, schedule: Q01DX005 (ip), vehicle: saline with Tween-80 99 % of control and 121 % of control | dose: 200.0 mg/kg/injection, schedule: Q01DX005 (ip), vehicle: saline with Tween-80 105 % of control and 115 % of control

COc1ccc(C2=C/C(=C3/C(=O)C=C(C)OC3=O)SS2)cc1
inactive: [1] 90 % of control | [2] 92 % of control | [3] 97 % of control

CC(=O)OC1=C2OC(=O)C3(C2C=CC=C1)C1C=CC=CC13 (stereo not drawn)
inactive: [1] 116 % of control | [2] 116 % of control | [3] 120 % of control
